The values that follow are results of earlier work, collected in US10960001B2, “Opioid agonist / antagonist combination dosage forms” (KASHIV PHARMA LLC, priority 2017, dated 2021).

For data set [1] the following is noted: 25° C.

With `C=CCN1CC[C@]23c4c5ccc(O)c4O[C@H]2C(=O)CC[C@@]3(O)[C@H]1C5` [Naloxone free base, naloxone], the solubility in water result in data set [1] is reported as “about 1.4 mg/mL”.
As to `C=CCN1CC[C@]23c4c5ccc(O)c4O[C@H]2C(=O)CC[C@@]3(O)[C@H]1C5` [Naloxone, naloxone], the oral bioavailability (after intake of therapeutic doses) is reported as 2-3%. In addition, the “bioavailability with oral ingestion” value (oral ingestion) is “about 2%”.
